Source: US11497819B2, “PSMA ligands for imaging and endoradiotherapy” (priority 2017, dated 2022)
“And” between values parts separate entries of the source, which are not always exact repeats. Equal values may be shown once. Read-outs that look alike come from different tables or passages of the source. *1 amine or outer side, *2 acyl side, *3 side chain or, on linkers, in order; H or OH if unused. Where a SMILES comes first, the peptide text is derived from it. Side-chain parts run from the residue outwards. [ ]: non-standard residue; d: D form. The star is where a group is joined. ξ: configuration not given here. ξOrn(Nα-γGlu(Nα-CO-Glu)) = O=C(O)CC[C@H](NC(=O)N[C@@H](CCC(=O)NC(CCCN*)C(=O)O)C(=O)O)C(=O)O; DOTAGA = O=C(O)CN1CCN(CC(=O)O)CCN(C(CCC(=O)*)C(=O)O)CCN(CC(=O)O)CC1; Phe(4-NO2) = N[C@@H](Cc1ccc([N+](=O)[O-])cc1)C(=O)O; X1 = O=C(c1ccc([N+](=O)[O-])cc1[N+](=O)[O-])*; d2Nal = N[C@H](Cc1ccc2ccccc2c1)C(=O)O; Suc = O=C(CCC(=O)[*:2])[*:1]; Dap = NC[C@H](N)C(=O)O

What was measured:
LNCaP cells = assay: Internalization into LNCaP cells, relative cellular uptake to ([^125I]I-BA)KuE; type: cell-based; conditions: c = 1.0 nM ^177Lu-labeled inhibitor, 37° C., 60 min, corrected for non-specific binding (10 μM 2-PMPA), mean ± SD (n = 3)
Protocol: PSMA-positive LNCAP cells (300265; Cell Lines Service GmbH) were cultivated in Dulbecco modified Eagle medium/Nutrition Mixture F-12 (1/1) (DMEM-F12, Biochrom) supplemented with fetal calf serum (FCS) (10%, Biochrom) and kept at 37° C. in a humidified CO2 atmosphere (5%). One day (24 h±2 h) prior to all experiments with LNCaP cells, the cultivated cells were harvested using a mixture of trypsin/ethylendiaminetetraacetate (0.05%/0.02%) and PBS and centrifuged. After centrifugation, the supernatant was disposed and the cell pellet resuspended in culture medium. Afterwards, cells were counted with a hemocytometer (Neubauer) and seeded in 24-well plates.
Subsequent to the removal of the culture medium, the cells were washed once with DMEM-F12-solution (500 μL, 5% BSA) and left to equilibrate for at least 15 min at 37° C. in DMEM-F12-solution (200 μL, 5% BSA). Afterwards, each well was treated with either DMEM-F12-solution (25 μL, 5% BSA) or 2-PMPA-solution (25 μL, 100 μm) for blockade. […] The experiment was terminated by placing the 24-well plate on ice for 3 min and the consecutive removal of the medium. Each well was rinsed with HBSS (250 μL) and the fractions from these first two steps combined, representing the amount of free radioligand. Removal of surface bound activity was accomplished by incubation of the cells with ice-cold 2-PMPA-solution (250 μL, 10 μm in PBS) for 5 min and subsequent rinsing with ice-cold PBS (250 μL). The internalized activity was determined through incubation of the cells in NaOH (250 μL, 1.0 m) and the combination with the fraction of the subsequent washing step with again NaOH (250 μL, 1.0 m). Each experiment (control and blockade) was performed in triplicate for each time point. Free, surface bound and internalized activity was quantified in a γ-counter.

[1] = Lipophilicity, logP in n-octanol/PBS of radiolabeled PSMA inhibitors; type: physicochemical; conditions: pH 7.4
Protocol: The radiolabeled PSMA inhibitor (0.5 to 1.0 MBq) dissolved in PBS (500 μL, pH=7.4), was added to n-octanol (500 μL) in a reaction vial (1.5 mL), which was rigorously vortexed for 3 min (n=6). For quantitative phase separation, the mixture was centrifuged at 6,000 g for 5 min (Biofuge 15, Heraus Sepatech, Osterode, Germany). The activity from samples of each phase (100 μL) were measured in a γ-counter to obtain the log P(o/w) value.

LNCaP-tumor xenograft = assay: Biodistribution in LNCaP-tumor xenograft bearing CB-17 SCID mice; type: in vivo
Protocol: All animal experiments were carried out in accordance with the general animal welfare regulations in Germany (Deutsches Tierschutzgesetz, approval #55.2-1-54-2532-71-13). For the tumor model, LNCaP cells (approx. 10^7 cells) were suspended in serum-free DMEM-F12 medium and Matrigel (1/1; v/v) (BD Biosciences, Germany) and inoculated onto the right shoulder of male, 6 to 8 weeks old CB-17 SCID mice (Charles River Laboratories, Sulzfeld, Germany). Animals were used after the tumor size reached 4 to 8 mm in diameter for experiments.

HSA = target: T1, HSA (Homo sapiens, UniProt P02768); assay: HSA binding on Chiralpak HSA column; type: in vitro ADME
T1 construct: purchased Daicel Chemical Industries / Chiral Technologies Europe (Illkirch, France)
Protocol: HSA binding experiments were performed as previously described. […] For each run, 10 μL of the solution containing the inhibitor was injected into the RP-HPLC system and the retention time measured. […] Non-linear regression was established with OriginPro 2016G.

[2] = male, CB-17 SCID, mouse, in vivo, 1 h
[3] = distribution coefficient in n-octanol/PBS, radiolabeled inhibitor, mean ± SD (n = 6), read-out: logP
[4] = after logarithmic plotting and calibration (n = 1)

T1 sequence (P02768 25-609): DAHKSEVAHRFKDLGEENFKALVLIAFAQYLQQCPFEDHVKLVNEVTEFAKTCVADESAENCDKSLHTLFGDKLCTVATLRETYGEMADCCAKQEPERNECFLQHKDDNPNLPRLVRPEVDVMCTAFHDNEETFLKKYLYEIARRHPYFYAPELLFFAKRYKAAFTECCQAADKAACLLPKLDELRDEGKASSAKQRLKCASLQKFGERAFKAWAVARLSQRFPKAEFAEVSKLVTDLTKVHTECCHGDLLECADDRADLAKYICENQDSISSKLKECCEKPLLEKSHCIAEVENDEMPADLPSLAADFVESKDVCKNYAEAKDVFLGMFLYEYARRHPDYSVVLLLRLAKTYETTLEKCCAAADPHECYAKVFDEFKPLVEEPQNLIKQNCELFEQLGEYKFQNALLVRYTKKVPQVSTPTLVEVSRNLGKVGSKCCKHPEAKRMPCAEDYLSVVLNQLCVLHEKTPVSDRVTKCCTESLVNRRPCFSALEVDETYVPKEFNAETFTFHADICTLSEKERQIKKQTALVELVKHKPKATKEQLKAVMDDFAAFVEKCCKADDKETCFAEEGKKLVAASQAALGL

Nc1ccc(C[C@@H](NC(=O)CCC(C(=O)O)N2CCN(CC(=O)O)CCN(CC(=O)O)CCN(CC(=O)O)CC2)C(=O)N[C@H](Cc2ccc(O)cc2)C(=O)N[C@H](Cc2ccc3ccccc3c2)C(=O)N[C@H](CCCCNC(=O)CCC(=O)NCCCC(NC(=O)CC[C@H](NC(=O)N[C@@H](CCC(=O)O)C(=O)O)C(=O)O)C(=O)O)C(=O)O)cc1 (stereo in doubt) [PSMA-49, DOTAGA-F(4-NH2)y-2-nal-k(Suc-N^5-orn-C^4-EuE)]
Internalization (LNCaP cells): 245.0 ± 4.2% | logP [1]: -4.01 ± 0.11 | adrenal gland (LNCaP-tumor xenograft; [2]): 5.66 ± 1.66 % ID/g | blood (LNCaP-tumor xenograft; [2]): 0.46 ± 0.06 % ID/g | bone (LNCaP-tumor xenograft; [2]): 0.29 ± 0.14 % ID/g | brain (LNCaP-tumor xenograft; [2]): 0.03 ± 0.01 % ID/g | heart (LNCaP-tumor xenograft; [2]): 0.57 ± 0.11 % ID/g | intestine (LNCaP-tumor xenograft; [2]): 0.30 ± 0.08 % ID/g | liver (LNCaP-tumor xenograft; [2]): 0.99 ± 0.19 % ID/g | lung (LNCaP-tumor xenograft; [2]): 1.47 ± 0.25 % ID/g | muscle (LNCaP-tumor xenograft; [2]): 0.17 ± 0.02 % ID/g | pancreas (LNCaP-tumor xenograft; [2]): 0.56 ± 0.07 % ID/g | spleen (LNCaP-tumor xenograft; [2]): 20.53 ± 6.79 % ID/g | stomach (LNCaP-tumor xenograft; [2]): 0.35 ± 0.10 % ID/g | tumor (LNCaP-tumor xenograft; [2]): 8.21 ± 0.23 % ID/g | tumor/blood (LNCaP-tumor xenograft; [2]): 17.8 | tumor/kidney (LNCaP-tumor xenograft; [2]): 0.05 | tumor/muscle (LNCaP-tumor xenograft; [2]): 48.3

O=C(O)CC[C@H](NC(=O)N[C@@H](CCC(=O)NC(CCCNC(=O)CCC(=O)NCCCC[C@@H](NC(=O)[C@@H](Cc1ccc2ccccc2c1)NC(=O)[C@@H](Cc1ccc(O)cc1)NC(=O)CCC(C(=O)O)N1CCN(CC(=O)O)CCN(CC(=O)O)CCN(CC(=O)O)CC1)C(=O)O)C(=O)O)C(=O)O)C(=O)O (some centres unmarked) [PSMA-46, DOTAGA-y-2-nal-k(Suc-N^5-orn-C^4-EuE)]
Internalization (LNCaP cells): 216.2 ± 9.2% | logP [1, 3]: -4.21 ± 0.08 | HSA (albumin binding) (HSA; [4]): 57.7%

O=C(O)CC[C@H](NC(=O)N[C@@H](CCC(=O)NC(CCCNC(=O)CCC(=O)NCCCC[C@@H](NC(=O)[C@@H](Cc1ccc2ccccc2c1)NC(=O)[C@@H](Cc1ccc(O)cc1)NC(=O)[C@H](Cc1ccc([N+](=O)[O-])cc1)NC(=O)CCC(C(=O)O)N1CCN(CC(=O)O)CCN(CC(=O)O)CCN(CC(=O)O)CC1)C(=O)O)C(=O)O)C(=O)O)C(=O)O (some centres unmarked) [PSMA-52, DOTAGA-F(4-NO2)-y-2-nal-k(Suc-N^5-orn-C^4-EuE)] ({DOTAGA}-[Phe(4-NO2)][dY][d2Nal][dK]([Suc-ξOrn(Nα-γGlu(Nα-CO-Glu))])-OH)
Internalization (LNCaP cells): 229.9 ± 8.0% | logP [1]: -4.11 ± 0.07 | HSA (albumin binding) (HSA; human, 0.5 mg/mL): 95.4%

O=C(O)CC[C@H](NC(=O)N[C@@H](CCC(=O)NC(CCCNC(=O)CCC(=O)NCCCC[C@@H](NC(=O)[C@@H](Cc1ccc2ccccc2c1)NC(=O)[C@@H](Cc1ccc(O)cc1)NC(=O)[C@H](CNC(=O)CCC(C(=O)O)N1CCN(CC(=O)O)CCN(CC(=O)O)CCN(CC(=O)O)CC1)NC(=O)c1ccc([N+](=O)[O-])cc1[N+](=O)[O-])C(=O)O)C(=O)O)C(=O)O)C(=O)O (some centres unmarked) [PSMA-53, 2,4-DNBA-Dap(DOTAGA)-y-2-nal-k(Suc-N^5-orn-C^4-EuE)] (X1-[Dap](DOTAGA)[dY][d2Nal][dK]([Suc-ξOrn(Nα-γGlu(Nα-CO-Glu))])-OH)
Internalization (LNCaP cells): 293.6 ± 10.0% | logP [1, 3]: -4.08 ± 0.04 | HSA (albumin binding) (HSA; [4]): 95.9%

Nc1ccc(C[C@H](NC(=O)CCC(C(=O)O)N2CCN(CC(=O)O)CCN(CC(=O)O)CCN(CC(=O)O)CC2)C(=O)N[C@H](Cc2ccc(O)cc2)C(=O)N[C@H](Cc2ccc3ccccc3c2)C(=O)N[C@H](CCC(=O)Nc2ccc(C(=O)NCCCC(NC(=O)CC[C@H](NC(=O)N[C@@H](CCC(=O)O)C(=O)O)C(=O)O)C(=O)O)cc2)C(=O)O)cc1 (some centres unmarked) [PSMA-60, DOTAGA-F(4-NH2)y-2-nal-e(Abz-N^5-orn-C^4-EuE)]
Internalization (LNCaP cells): 267.4 ± 7.9% | logP [1]: -3.85 ± 0.13

Nc1ccc(C[C@H](NC(=O)CCC(C(=O)O)N2CCN(CC(=O)O)CCN(CC(=O)O)CCN(CC(=O)O)CC2)C(=O)N[C@H](Cc2ccc(O)cc2)C(=O)N[C@H](Cc2ccc3ccccc3c2)C(=O)N[C@H](CCCCNC(=O)[C@@H](CC(=O)NCCCC(NC(=O)CC[C@H](NC(=O)N[C@@H](CCC(=O)O)C(=O)O)C(=O)O)C(=O)O)NC(=O)c2ccc([N+](=O)[O-])cc2[N+](=O)[O-])C(=O)O)cc1 (some centres unmarked) [PSMA-61, DOTAGA-F(4-NH2)y-2-nal-k(d[N^5-orn-C^4-EuE]-2,4-DNBA)]
Internalization (LNCaP cells): 359.5 ± 22.6% | logP [1, 3]: -4.07 ± 0.05 | tumor (LNCaP-tumor xenograft; 1 h p.i., ^177Lu-labeled, n = 4): 8.00±0.75 % ID/g | tumor (LNCaP-tumor xenograft; 24 h p.i., ^177Lu-labeled, n = 4): 7.70±1.35 % ID/g | HSA (albumin binding) (HSA; [4]): 63.3%

O=C(O)CC[C@H](NC(=O)N[C@@H](CCC(=O)NC(CCCNC(=O)c1ccc(NC(=O)CC[C@@H](NC(=O)[C@@H](Cc2ccc3ccccc3c2)NC(=O)[C@@H](Cc2ccc(O)cc2)NC(=O)[C@H](CNC(=O)CCC(C(=O)O)N2CCN(CC(=O)O)CCN(CC(=O)O)CCN(CC(=O)O)CC2)NC(=O)c2ccc([N+](=O)[O-])cc2[N+](=O)[O-])C(=O)O)cc1)C(=O)O)C(=O)O)C(=O)O (some centres unmarked) [PSMA-65, 2,4-DNBA-Dap(DOTAGA)y-2-nal-e(Abz-N^5-orn-C^4-EuE)]
Internalization (LNCaP cells; listed as [^nat/177Lu]PSMA-65): 340.2 ± 19.9% and 340.2 ± 18.9% | logP [1, 3]: -4.15 ± 0.08 | HSA (albumin binding) (HSA; after logarithmic plotting and calibration (n = 1), listed as [^nat/177Lu]PSMA-65): 98.7%

Nc1ccc(C[C@H](NC(=O)CCC(C(=O)O)N2CCN(CC(=O)O)CCN(CC(=O)O)CCN(CC(=O)O)CC2)C(=O)N[C@H](Cc2ccc(O)cc2)C(=O)N[C@H](Cc2ccc3ccccc3c2)C(=O)N[C@H](CCCCNC(=O)[C@@H](CC(=O)NCCCC(NC(=O)CC[C@H](NC(=O)N[C@@H](CCC(=O)O)C(=O)O)C(=O)O)C(=O)O)NC(=O)c2cc(O)cc(O)c2)C(=O)O)cc1 (some centres unmarked) [PSMA-78, DOTAGA-F(4-NH2)y-2-nal-k(d[N^5-orn-C^4-EuE]-3,5-DHBA)]
Internalization (LNCaP cells): 289.0 ± 6.2%
